# Data published in patent US6548539B1, “Agents for regulation of colon cancer gene expression” (Avalon Pharmaceuticals, priority 2001, dated 2003).
# How the values were obtained:
# Type in all cases: cell-based, human
# Settings in all cases: HT29 cell line (colon tumor), compound 10 μM, 24 hours, vs control
# [1] = test system: Gene 1; test: Gene modulating activity in colon cancer cells (RT-PCR RNA expression), Gene 1
# Experimental: (§1) In such assays, primary cells, or tissue samples, are maintained in growth medium and are treated with compounds at a single concentration (10 μM for the data of Table 1) or at a range of concentrations (such as from 1 μM up to 100 μM). At specific times after treatment at the given concentration of test compound, cellular RNAs are isolated from the treated cells, primary cells or tumors, which RNAs are indicative of expression of selected genes, including, but not limited to, the genes used herein. The cellular RNA is then divided and subjected to analysis that detects the presence and/or quantity of specific RNA transcripts, which transcripts may then be amplified for detection purposes using standard methodologies, such as, for example, reverse transcriptase polymerase chain reaction (RT-PCR), etc. The presence or absence, or levels, of specific RNA transcripts are determined from these measurements and a metric derived for the type and degree of response of the sample to the treated compound compared to control samples. One such procedure is shown in example 8 where test compound may or may not be present.
# (§2) HT29 cells are grown to a density of 10^5 cells/cm^2 in Leibovitz's L-15 medium supplemented with 2 mM L-glutamine (90%) and 10% fetal bovine serum. The cells are collected after treatment with 0.25% trypsin, 0.02% EDTA at 37° C. for 2 to 5 minutes. The trypsinized cells are then diluted with 30 ml growth medium and plated at a density of 50,000 cells per well in a 96 well plate (200 μl/well). The following day, cells are treated with either compound buffer alone, or compound buffer containing a chemical agent to be tested, for 24 hours. The media is then removed, the cells lysed and the RNA recovered using the RNAeasy reagents and protocol obtained from Qiagen. […] Reverse transcription is then carried out at 48° C. for 30 minutes. The sample is then applied to a Perlin Elmer 7700 sequence detector and heat denatured for 10 minutes at 95° C. Amplification is performed through 40 cycles using 15 seconds annealing at 60° C. followed by a 60 second extension at 72° C. and 30 second denaturation at 95° C. Data files are then captured and the data analyzed with the appropriate baseline windows and thresholds.
# (§3) For testing of the effects of a compound of Table 1, each compound was present at a concentration of 10 μM in the culture medium.
# (§4) The quantitative difference between the target and reference genes is then calculated and a relative expression value determined for all of the samples used. This procedure is then repeated for each of the target genes in a given signature, or characteristic, set and the relative expression ratios for each pair of genes is determined (i.e., a ratio of expression is determined for each target gene versus each of the other genes for which expression is measured, where each gene's absolute expression is determined relative to the reference gene for each compound, or chemical agent, to be screened). The samples are then scored and ranked according to the degree of alteration of the expression profile in the treated samples relative to the control. The overall expression of the set of genes relative to the controls, as modulated by one chemical agent relative to another, is also readily ascertained. Chemical agents having the most effect on a given gene, or set of genes, are considered the most therapeutic or anti-neoplastic, depending on the tissues being studied. In each case, the agent was present in the cell culture at a concentration of ten micromolar.
# (§5) The sets of genes, or signature sets, useful in the methods of the invention disclosed herein represent a set of genes expressed at a higher level in a cancer cell line derived from colon but not expressed at a higher level in normal colon (for example, genes 1, 2, 4-10 for the data of Table 1) or whose expression is higher in normal cells (for example, genes 3 and 11 for the data of Table 1) relative to the cancer cells. […]
# [2] = test system: Gene 2; test: Gene modulating activity in colon cancer cells (RT-PCR RNA expression), Gene 2
# Experimental: as §1
# For example, Gene 2 was a gene that encodes a kallikrein. Tissue or glandular kallikreins are members of a large and highly conserved family of serine proteases that are central to many physiological processes. They are secreted protein-cleaving enzymes that process for example kininogen (local blood flow, sodium balance, inflammation, cell proliferation), growth factors (EGF, NGF, vasoactive peptide), or other substrates. The prostate antigens hK2 and PSA are members of this family. Diseases in which kallikreins have been implicated include acute pancreatitis, inflammatory arthritis and inflammatory bowel disease, sepsis, enterocolitis, arterial and salt-sensitive hypertension, blood coagulation disorders, scorpion and snake evenomation, infections and cancer. Thus, the chemical agents disclosed herein find use in the treatment and/or prevention of any of these diseases.
# as §2, §3
# The quantitative difference between the target and reference genes is then calculated and a relative expression value determined for all of the samples used. This procedure is then repeated for each of the target genes in a given signature, or characteristic, set and the relative expression ratios for each pair of genes is determined (i.e., a ratio of expression is determined for each target gene versus each of the other genes for which expression is measured, where each gene's absolute expression is determined relative to the reference gene for each compound, or chemical agent, to be screened). […]
# [3] = test system: Gene 3; test: Gene modulating activity in colon cancer cells (RT-PCR RNA expression), Gene 3
# Experimental: as §1, §2, §3, §4, §5
# [4] = test system: Gene 4; test: Gene modulating activity in colon cancer cells (RT-PCR RNA expression), Gene 4
# Experimental: as §1, §2, §3, §4, §5
# [5] = test system: Gene 5; test: Gene modulating activity in colon cancer cells (RT-PCR RNA expression), Gene 5
# Experimental: as §1, §2, §3, §4, §5
# [6] = test system: Gene 6; test: Gene modulating activity in colon cancer cells (RT-PCR RNA expression), Gene 6
# Experimental: as §1, §2, §3, §4, §5
# [7] = test system: Gene 7; test: Gene modulating activity in colon cancer cells (RT-PCR RNA expression), Gene 7
# Experimental: as §1, §2, §3, §4, §5
# [8] = test system: Gene 8; test: Gene modulating activity in colon cancer cells (RT-PCR RNA expression), Gene 8
# Experimental: as §1, §2, §3, §4, §5
# [9] = test system: Gene 9; test: Gene modulating activity in colon cancer cells (RT-PCR RNA expression), Gene 9
# Experimental: as §1, §2, §3, §4, §5
# [10] = test system: Gene 10; test: Gene modulating activity in colon cancer cells (RT-PCR RNA expression), Gene 10
# Experimental: as §1, §2, §3, §4, §5
# [11] = test system: Gene 11; test: Gene modulating activity in colon cancer cells (RT-PCR RNA expression), Gene 11
# Experimental: as §1, §2, §3
# as §4, with “In each case, the agent was present in the cell culture at a concentration of ten micromolar.” left out
Compound,Gene 1 Folds of up (+) or down (−) regulatlon [1],Gene 2 Folds of up (+) or down (−) regulatlon [2],Gene 3 Folds of up (+) or down (−) regulatlon [3],Gene 4 Folds of up (+) or down (−) regulatlon [4],Gene 5 Folds of up (+) or down (−) regulatlon [5],Gene 6 Folds of up (+) or down (−) regulatlon [6],Gene 7 Folds of up (+) or down (−) regulatlon [7],Gene 8 Folds of up (+) or down (−) regulatlon [8],Gene 9 Folds of up (+) or down (−) regulatlon [9],Gene 10 Folds of up (+) or down (−) regulatlon [10],Gene 11 Folds of up (+) or down (−) regulatlon [11]
CC(C)CN(C(=O)c1ccccc1)C1CCCC1Sc1ccccc1 (stereo not drawn) [AV-96],3.5 Folds,2.8 Folds,3.2 Folds,2.8 Folds,2.8 Folds,−4.9 Folds,5.3 Folds,2.8 Folds,2.5 Folds,1.9 Folds,3.7 Folds
CCCN(C(=O)c1ccccc1)C1CCCC1Sc1ccccc1 (stereo not drawn) [AV-221],64.0 Folds,1.4 Folds,−3.5 Folds,1.4 Folds,1.5 Folds,−1.1 Folds,90.5 Folds,1.6 Folds,1.2 Folds,−6.5 Folds,–
CN(C(=O)C1CCC1)C1CCCCC1Sc1ccccc1 (stereo not drawn) [AV-283],−2.1 Folds,−1.7 Folds,−4.6 Folds,−1.7 Folds,−1.5 Folds,−3.5 Folds,−3.7 Folds,−1.7 Folds,−3.7 Folds,−3.0 Folds,−34.3 Folds
CCCN(C(=O)Nc1ccc(-c2ccccc2)cc1)C1COCC1SC (stereo not drawn) [AV-916],−2.1 Folds,−1.1 Folds,−8.0 Folds,−1.3 Folds,−1.2 Folds,1.0 Folds,−1.2 Folds,−3.0 Folds,−6.5 Folds,−8.6 Folds,−3.7 Folds
CSC1CCCC1NC(=O)Nc1cccc(Cl)c1 (stereo not drawn) [AV-988],2.6 Folds,2.3 Folds,−11.3 Folds,1.9 Folds,1.9 Folds,2.0 Folds,1.2 Folds,1.7 Folds,1.3 Folds,−4.6 Folds,–
O=C(Nc1ccc(-c2ccccc2)cc1)N(Cc1ccccc1)C1CCCC1Sc1ccccc1 (stereo not drawn) [AV-1030],2.1 Folds,3.7 Folds,−1.1 Folds,1.1 Folds,2.5 Folds,1.4 Folds,−1.1 Folds,−2.6 Folds,−2.6 Folds,−2.5 Folds,−4.6 Folds
COCCN(C(=O)COc1ccccc1)C1CCCC1Sc1ccccc1 (stereo not drawn) [AV-1241],1.9 Folds,1.7 Folds,29.9 Folds,2.0 Folds,1.2 Folds,2.8 Folds,26.0 Folds,2.1 Folds,9.2 Folds,13.0 Folds,27.9 Folds
